Assay results published in patent publication US7897606B2, “5,6-di-substituted oxadiazolopyrazines and thiadiazolopyrazines as CXC-chemokine receptor ligands” (Schering Corporation, priority 2005, dated 2011).

Key:
[1] = target: T1, CXCR1 (Homo sapiens, UniProt P25024); assay: CXCR1 SPA receptor binding assay
T1 construct: purchased Biosignal; host or cells: CHO cells overexpressing hCXCR1 (membranes)
T1 sequence (P25024 1-350): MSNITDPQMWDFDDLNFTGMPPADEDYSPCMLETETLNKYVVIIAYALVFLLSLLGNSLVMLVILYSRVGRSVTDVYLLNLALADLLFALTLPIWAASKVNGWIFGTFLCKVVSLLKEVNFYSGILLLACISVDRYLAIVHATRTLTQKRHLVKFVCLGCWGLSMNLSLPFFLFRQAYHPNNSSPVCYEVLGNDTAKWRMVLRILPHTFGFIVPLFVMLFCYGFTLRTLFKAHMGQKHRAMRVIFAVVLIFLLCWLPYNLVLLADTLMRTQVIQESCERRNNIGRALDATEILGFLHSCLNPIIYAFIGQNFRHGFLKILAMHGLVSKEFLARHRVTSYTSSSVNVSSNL
Protocol: For each well of a 96 well plate, a reaction mixture of 10 μg hCXCR1-CHO overexpressing membranes (Biosignal) and 200 μg/well WGA-SPA beads (Amersham) in 100 μl can be prepared in CXCR1 assay buffer (25 mM HEPES, pH 7.8, 2 mM CaCl2, 1 mM MgCl2, 125 mM NaCl, 0.1% BSA) (Sigma). A 0.4 nM stock of ligand, [125I]-IL-8 (NEN) can be prepared in the CXCR1 assay buffer. 20× stock solutions of test compounds can be prepared in DMSO (Sigma). A 6× stock solution of IL-8 (R&D) can be prepared in CXCR2 assay buffer. The above solutions can be added to a 96-well assay plate (PerkinElmer) as follows: 10 μl test compound or DMSO, 40 μl CXCR1 assay buffer or IL-8 stock, 100 μl of reaction mixture, 50 μl of ligand stock (Final [Ligand]=0.1 nM). The assay plates can be shaken for 5 minutes on plate shaker, then incubated for 8 hours before cpm/well can be determined in Microbeta Trilux counter (PerkinElmer). % Inhibition of Total binding-NSB (250 nM IL-8) can be determined for IC50 values.

[2] = target: T2, CXCR2 (Homo sapiens, UniProt P25025); assay: CXCR2 SPA receptor binding assay
T2 construct: purchased Biosignal; host or cells: CHO cells overexpressing hCXCR2 (membranes)
T2 sequence (P25025 1-360): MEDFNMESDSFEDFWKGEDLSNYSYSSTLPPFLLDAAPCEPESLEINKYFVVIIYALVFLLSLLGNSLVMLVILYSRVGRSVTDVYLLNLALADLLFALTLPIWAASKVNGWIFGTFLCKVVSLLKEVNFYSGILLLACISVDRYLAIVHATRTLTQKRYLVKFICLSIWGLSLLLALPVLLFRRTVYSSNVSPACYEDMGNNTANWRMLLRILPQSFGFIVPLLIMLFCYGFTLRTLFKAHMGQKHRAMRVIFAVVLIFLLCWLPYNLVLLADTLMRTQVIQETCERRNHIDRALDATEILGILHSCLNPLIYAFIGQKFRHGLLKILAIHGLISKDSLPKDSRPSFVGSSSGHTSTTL
Protocol: For each well of a 96 well plate, a reaction mixture of 4 μg hCXCR2-CHO overexpressing membranes (Biosignal) and 200 μg/well WGA-SPA beads (Amersham) in 100 μl can be prepared in CXCR2 assay buffer (25 mM HEPES, pH 7.4, 2 mM CaCl2, 1 mM MgCl2). A 0.4 nM stock of ligand, [125I]-IL-8 (NEN), can be prepared in the CXCR2 assay buffer. 20× stock solutions of test compounds can be prepared in DMSO (Sigma). A 6× stock solution of GRO-α (R&D) can be prepared in CXCR2 assay buffer. The above solutions can be added to a 96-well assay plate (PerkinElmer or Corning) as follows: 10 μl test compound or DMSO, 40 ul CXCR2 assay buffer or GRO-α stock, 100 μl of reaction mixture, 50 μl of ligand stock (Final [Ligand]=0.1 nM). When 40× stock solutions of test compounds in DMSO can be prepared, then the above protocol can be used except instead 5 μl test compound or DMSO and 45 μl CXCR2 assay buffer can be used. The assay plates can be shaken for 5 minutes on a plate shaker, then incubated for 2-8 hours before cpm/well can be determined in Microbeta Trilux counter (PerkinElmer). % Inhibition of total binding minus non-specific binding (250 nM Gro-α or 50 μM antagonist) can be determined and IC50 values can be calculated.

## CC[C@@H](Nc1nc2nonc2nc1Nc1cccc(C(=O)N(C)C)c1O)c1ccc(C)o1 [Compound 4]
[1]
  Ki: 4.22 µM
[2]
  Ki: 0.196 µM
